According to patent US10045987B2, “Imidazoyl anilide derivatives and methods of use” (Codexis, Inc., priority 2014, dated 2018):

Columns and labels:
K-562 cells = experiment: K-562 cytotoxicity assay, CellTiter 96 Aqueous One, 72 hours; settings: for K-562 IC50: 72 hours, CellTiter 96, class relative to nilotinib
[1] = system: K562 lymphoblast cell line; experiment: K562 cytotoxicity assay at RBC, Cell Titer-Glo 2.0, 72 hours; type: cell-based; settings: class relative to nilotinib
Procedure: In this Example, experiments conducted at RBC to assess the cytotoxicity of nilotinib and compounds 14, 17, 19, 21, and 22 (i.e., test compounds) are described. All of the test compounds were kept between 4° C. to 8° C. in solid form or as solution in DMSO.
The cell line K562 was obtained from the ATCC. Test compounds were dissolved in DMSO (1 mM stock). Cell Titer-Glo® 2.0 Luminescent cell viability assay reagent was obtained from Promega. K562 lymphoblast cell line was cultured in Iscove's Modified Dulbecco's medium supplemented with 10% FBS. 100 μg/ml penicillin and 100 μg/ml streptomycin were added to all culture media. Cultures were maintained at 37° C. in a humidified atmosphere of 5% CO2 and 95% air. Test compounds in DMSO were added in a source plate. 25 nL of test compounds was delivered from the source plate to each well of the 384-well cell culture plates by Echo 550. 25 μl of culture medium containing 1000 cells for each cell line was added to the wells of the cell culture plates. Cells were incubated with test compounds at 37° C., 5% CO2 for 72 hours. 25 μl of Cell Titer Glo 2.0 reagent was added to each well. The contents were mixed on an orbital shaker for 2 minutes and incubated at room temperature for 10 minutes to stabilize luminescent signal. Luminescence was recorded by Envision 2104 Multilabel Reader (PerkinElmer). The number of viable cells in culture was determined based on quantization of the ATP present in each culture well. The IC50 values were calculated and the IC50 curves were plotted using the GraphPad Prism 4 program based on a sigmoidal dose-response equation.

PDGFRα[h] = PDGFRα[h] (Homo sapiens, UniProt P16234); experiment: biochemical
Procedure: (§1) The assays were performed at Merck-Milliore, using their standard assay protocols

cKit[h] = target: T1, cKit[h] (Homo sapiens, UniProt P10721); experiment: cKit kinase assay at Merck-Milliore (standard protocol); type: biochemical
T1 construct: purchased Merck-Milliore (contract assay service)
Procedure: as §1

cSRC = target: T2, cSRC (Homo sapiens, UniProt P12931); experiment: cSRC kinase assay at Merck-Milliore (standard protocol); type: biochemical
T2 construct: purchased Merck-Milliore (contract assay service)
Procedure: as §1

Flt1[h] = target: T3, Flt1[h] (Homo sapiens, UniProt P17948); experiment: Flt1 kinase assay at Merck-Milliore (standard protocol); type: biochemical
T3 construct: purchased Merck-Milliore (contract assay service)
Procedure: as §1

hERG potassium channels = hERG potassium channels (Homo sapiens, UniProt Q12809)
Procedure: CHO cells stably expressing hERG potassium channels obtained from Aviva BioSciences were used for this test.
Visual check for precipitation was conducted before testing.
The hERG QPatchHTX assay was conducted at room temperature. The whole-cell protocols, voltage protocols and application protocols were established with QPatch Assay Software 5.0 (Sophion).

SMILES	K-562 IC50 (K-562 cells)	K-562 IC50 (RBC) [1]	hERG inhibition compared with Nilotinib (hERG potassium channels)	also measured
Cc1cn(-c2cc(NC(=O)c3ccc(C)c(Nc4nccc(-c5cccnc5)n4)c3)cc(C(F)(F)F)c2)cn1 [Compound 1, 4-methyl-N-[3-(4-methyl-1H-imidazol-1-yl)-5-(trifluoromethyl)phenyl]-3-[(4-pyridin-3-ylpyrimidin-2-yl)amino]benzamide, reference compound]	+	+		
Cc1ccc(C(=O)Nc2cc(-n3cnc(CO)c3)cc(C(F)(F)F)c2)cc1Nc1nccc(-c2cccnc2)n1 [Compound 2, N-[3-[4-(hydroxymethyl)imidazol-1-yl]-5-(trifluoromethyl)phenyl]-4-methyl-3-[[4-(3-pyridyl)pyrimidin-2-yl]amino]benzamide]	++ (IC50 more than 25% smaller than IC50 for nilotinib)		less inhibiting to hERG than Nilotinib	IC50 (PDGFRα[h]): 1900 nM; IC50 (cKit[h]): 1300 nM; IC50 (cSRC): 1300 nM; IC50 (Flt1[h]): 1100 nM; hERG IC50 (μM) (hERG potassium channels): +
Cc1ccc(C(=O)Nc2cc(-n3cnc(COC(=O)C4CC4)c3)cc(C(F)(F)F)c2)cc1Nc1nccc(-c2cccnc2)n1 [Compound 11]	++ (IC50 more than 25% smaller than IC50 for nilotinib)		less inhibiting to hERG than Nilotinib	
Cc1ccc(C(=O)Nc2cc(-n3cnc(COC(N)=O)c3)cc(C(F)(F)F)c2)cc1Nc1nccc(-c2cccnc2)n1 [Compound 12]	+++ (IC50 more than 75% great than IC50 for nilotinib)		less inhibiting to hERG than Nilotinib	IC50 (K-562 cells; Homo sapiens, K562, 72 h, read-out: K-562 IC50): < 1 nM
Cc1ccc(C(=O)Nc2cc(-n3cnc(CNCC(=O)O)c3)cc(C(F)(F)F)c2)cc1Nc1nccc(-c2cccnc2)n1 [Compound 21]		− (IC50 more than 25% great than IC50 for nilotinib)		
COC(=O)CNCc1cn(-c2cc(NC(=O)c3ccc(C)c(Nc4nccc(-c5cccnc5)n4)c3)cc(C(F)(F)F)c2)cn1 [Compound 22]		− (IC50 more than 25% great than IC50 for nilotinib)		
